Patent publication US12369584B2, “Fungicide mixtures” (LANXESS Deutschland GmbH, priority 2019, dated 2025)
Like-named read-outs stand apart in the source and are kept apart here.

Legend:
Assay in all cases: MIC on nutrient agar and synergistic index (Kull)
Type in all cases: cell-based
[1] = system: Alternaria alternata
Description: (§1) The term synergism is used when the action of a combination of antimicrobial substances is being evaluated.
(§2) The synergism found for the mixtures according to the invention can be determined via the following mathematical formula (cf. F. C. Kull, P. C. Elisman, H. D. Sylwestrowicz and P. K. Mayer, Appl. Microbiol. 9, 538 (1961):
(§3) Qa=amount of component A in the active substance mixture which achieves the desired effect, i. e. no microbial growth,
(§4) QA=amount of component A which, when used alone, suppresses the growth of the microorganisms,
(§5) Qb=amount of component B in the active substance mixture which suppresses the growth of the microorganisms,
(§6) QB=amount of component B which, when used alone, suppresses the growth of the microorganisms
(§7) If the sum of the ratios for a mixture Qa/QA+Qb/QB=1, additivity is indicated; if it is <1, synergism has occurred; a value of >1 is indicative of antagonism.
(§8) To determine the antimicrobial efficacy and synergy of active ingredients mixtures, the Minimum Inhibitory Concentration (MIC) of the active substances and their respective combinations were determined. The Minimum Inhibitory Concentration of a given antimicrobial compound or mixture is the lowest concentration expressed in […] that under defined in vitro conditions inhibits the growth of a given micro-organism (for example bacteria, mould fungi, yeasts). The growth of the microorganisms is observed on petri dishes containing a defined nutrient agar.
(§9) The antimicrobial efficacy and synergy of combinations based on TBZ, PYM and FDL were determined.

[2] = system: Aureobasidium pullulans
Description: as §1, §2, §3, §4, §5, §6, §7, §8, §9

[3] = system: Chaetomium globosum
Description: as §1, §2, §3, §4, §5, §6, §7, §8, §9

[4] = system: Paecilomyces variotii
Description: as §1, §2, §3, §4, §5, §6, §7, §8, §9

[5] = system: Stachybotris chartarum
Description: as §1, §2, §3, §4, §5, §6, §7, §8, §9

[6] = Stachybotris chartarum, nutrient agar, read-out: MIC

Compound | MIC [1] [µg/mL] | MIC [2] [µg/mL] | MIC [3] [µg/mL] | MIC [4] [µg/mL] | MIC [5] [µg/mL] | MIC ([1]; nutrient agar, read-out: MIC) [µg/mL] | MIC ([2]; nutrient agar, read-out: MIC) [µg/mL] | MIC ([3]; nutrient agar, read-out: MIC) [µg/mL] | MIC ([4]; nutrient agar, read-out: MIC) [µg/mL] | MIC [5, 6] [µg/mL]
N#Cc1c[nH]cc1-c1cccc2c1OC(F)(F)O2 [FDL, fludioxonil] | 5 | 1500 | 1500 | 175 | 5 | – | – | – | – | –
Cc1cc(C)nc(Nc2ccccc2)n1 [PYM, pyrimethanil] | – | – | – | – | – | 25 | 175 | 250 | 90 | 100
c1ccc2[nH]c(-c3cscn3)nc2c1 [TBZ, thiabendazole] | – | – | – | – | – | 250 | 5 | 5 | 5 | 50
